Measurements taken from patent US20140323501A1, “AMINO-PROPYLENE-GLYCOL DERIVATIVES, PREPARATION METHOD AND PHARMACEUTICAL COMPOSITION AND USE THEREOF” (INSTITUTE OF MATERIA MEDICA, CHINESE ACADEMY OF MEDICAL …, priority 2011, published 2014).

Legend:
[1] = system: SD rat heart rate; experiment: Effect of S1P1 receptor agonists on rat heart rate; type: in vivo; design: heart rate 0: unit not given beside the values; conditions: Table 4; for heart rate 0.5 h / heart rate 1 h / heart rate 3 h / heart rate 6 h / heart rate 8 h / heart rate 24 h / heart rate 0: intragastric; for heart rate 0: time 0, before administration
[2] = system: SD rat peripheral blood lymphocyte counts; experiment: Effect of S1P1 receptor agonists on rat vein (peripheral) blood lymphocyte counts; type: in vivo; conditions: Table 3, 10 mg/Kg intragastric; for LYM 0 h: before administration; for Δ %: largest decrease of lymphocyte count vs 0 h
Procedure: 10 mg of drugs were measured and placed in a mortar. After 4 mL of 5‰ CMC-Na were added, homogenous suspension was prepared in the mortar (one drop of twain-80 was added to help dissolving). Dosage: 10 mg/Kg, dose volume: 0.4 mL/100 g, intragastric administration.
Every medicated group was assigned three rats.
After the experimental animals stable in the clean environment for 24 h, 10 μL of blood was withdrawn via tail vein and diluted into 2 mL of diluents quickly. […] Then the prepared drugs were administered intragastrically to the animals. […] The animals were killed after 24 h.

Row | Compound | Δ % = the percentage of change of rat heart rate before and after administration [1] [%] | heart rate 0.5 h [1] | heart rate 1 h [1] | heart rate 3 h [1] | heart rate 6 h [1] | heart rate 8 h [1] | heart rate 24 h [1] | heart rate 0 [1] | LYM 0 h [2] | LYM 1 h [2] | LYM 2 h [2] | LYM 4 h [2] | LYM 6 h [2] | LYM 8 h [2] | LYM 12 h [2] | LYM 23 h [2] | Δ % [2] [%]
1 | NC(CO)(CO)CCc1ccc(Oc2ccc(-c3coc(C4CC4)n3)cc2)cc1 [Syl955] | 21.72 | 373.00 | 384.75 | 338.25 | 335.50 | 351.50 | 353.90 | 428.63 | 7.40 ± 2.18 ×10^9/L | 6.27 ± 0.78 ×10^9/L | 6.87 ± 0.90 ×10^9/L | 6.83 ± 1.26 ×10^9/L | 8.33 ± 2.70 ×10^9/L | 6.53 ± 1.42 ×10^9/L | 2.90 ± 0.95 ×10^9/L | 4.93 ± 1.07 ×10^9/L | 60.81
2 | CCCc1nc(-c2ccc(Oc3ccc(C(O)CC(N)(CO)CO)cc3)cc2)co1 (stereo not shown) [Syl961] | 11.64 | 382.56 | 364.33 | 379.45 | 344.36 | 363.08 | 363.27 | 389.75 | 7.90 ± 2.46 ×10^9/L | 8.57 ± 2.55 ×10^9/L | 6.40 ± 0.98 ×10^9/L | 6.33 ± 2.25 ×10^9/L | 5.83 ± 1.88 ×10^9/L | 3.93 ± 1.78 ×10^9/L | 3.67 ± 1.68 ×10^9/L | 2.63 ± 0.31 ×10^9/L | 66.67
3 | CC(C)c1nc(-c2ccc(Oc3ccc(C(O)CC(N)(CO)CO)cc3)cc2)co1 (stereo not shown) [Syl962] | 13.58 | 397.13 | 374.88 | 358.58 | 343.63 | 337.00 | 331.89 | 390.00 | 8.03 ± 1.15 ×10^9/L | 5.60 ± 0.90 ×10^9/L | 5.83 ± 1.54 ×10^9/L | 6.27 ± 1.42 ×10^9/L | 3.63 ± 0.38 ×10^9/L | 2.67 ± 0.67 ×10^9/L | 3.10 ± 0.56 ×10^9/L | 2.43 ± 0.59 ×10^9/L | 69.70
4 | NC(CO)(CO)CC(O)c1ccc(Oc2ccc(-c3coc(C4CC4)n3)cc2)cc1 (stereo not shown) [Syl963] | 4.58 | 388.38 | 378.36 | 377.36 | 366.88 | 362.50 | 369.05 | 395.50 | 6.90 ± 0.95 ×10^9/L | 4.67 ± 1.50 ×10^9/L | 5.07 ± 2.10 ×10^9/L | 6.67 ± 0.81 ×10^9/L | 4.57 ± 1.29 ×10^9/L | 4.13 ± 0.84 ×10^9/L | 4.20 ± 2.52 ×10^9/L | 2.43 ± 0.91 ×10^9/L | 64.73
5 | CCc1nc(-c2ccc(Sc3ccc(CCC(N)(CO)CO)cc3)cc2)co1 [Syl974] | 4.81 | 382.63 | 388.00 | 396.19 | 368.56 | 364.11 | 363.13 | 381.50 | 6.55 ± 0.21 ×10^9/L | 4.63 ± 0.61 ×10^9/L | 5.27 ± 1.27 ×10^9/L | 5.20 ± 0.61 ×10^9/L | 5.77 ± 0.40 ×10^9/L | 4.67 ± 0.61 ×10^9/L | 2.23 ± 0.59 ×10^9/L | 4.47 ± 1.36 ×10^9/L | 65.9
